Assay results published in publication PMC12814185, “Receptor-Mediated Shuttling of a D‑Amino Acid Peptide Achieves High Nanomolar Cytosolic Concentrations” (Journal of the American Chemical Society, 2025).
Read-outs that look alike come from different tables or passages of the source. Where a SMILES comes first, the peptide text is derived from it. Bridges are numbered along the chain shown (N, C = ends). Roman numbers before positions name the chains, in order. Triazole bridges read from a SMILES are 1,4-linked. Where no end group is shown, it is not given here. [ ]: non-standard residue; d: D form. Lys(N3) = [N-]=[N+]=NCCCC[C@H](N)C(=O)O; Cit = NC(=O)NCCC[C@H](N)C(=O)O; d(hCys) = N[C@H](CCS)C(=O)O; PEG3 = NCCOCCOCCOCCC(=O)O; Pra = C#CC[C@H](N)C(=O)O

Tests used:
[1] = target: T1, CMKLR1 (Homo sapiens, UniProt Q99788); experiment: Ca2+ flux assay in COS-7_CMKLR1-eYFP_Δ6Gαqi4myr cells; assay type: cell-based; details: maximum signal over baseline normalized to peptide 1, at least two independent experiments in duplicate
T1 construct: expressed in transfected cells; host or cells: COS-7 (stably transfected, CMKLR1-eYFP + Δ6Gαqi4myr)
T1 sequence (Q99788 1-373): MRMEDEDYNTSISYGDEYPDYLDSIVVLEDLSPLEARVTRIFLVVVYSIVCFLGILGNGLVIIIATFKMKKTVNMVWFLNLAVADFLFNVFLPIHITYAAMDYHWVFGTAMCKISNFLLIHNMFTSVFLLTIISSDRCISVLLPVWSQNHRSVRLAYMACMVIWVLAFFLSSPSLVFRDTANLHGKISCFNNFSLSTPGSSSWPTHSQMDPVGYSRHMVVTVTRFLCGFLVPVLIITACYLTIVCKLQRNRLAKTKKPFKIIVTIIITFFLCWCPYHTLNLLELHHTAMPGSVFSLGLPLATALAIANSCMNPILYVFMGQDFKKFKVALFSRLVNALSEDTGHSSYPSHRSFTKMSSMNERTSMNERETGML
Procedure: (C) Activity of the cyclic chemerin-9 (cC9) derivatives at CMKLR1 tested in a Ca^2+ flux assay. Data points represent the mean ± SEM of at least two independent experiments performed in duplicate.
Calcium flux assay was performed with cells expressing CMKLR1 and the chimeric G protein Δ6Gαqi4myr.
The stably transfected COS-7_CMKLR1-eYFP_ Δ6Gαqi4myr cells were seeded at 25,000 cells per well into poly-ᴅ-lysine-coated 96-well plates (black µCLEAR, Greiner). The next day, cells were incubated with 2.3 µM Fluo-2-AM (Abcam) and 0.06% (v/v) Pluronic-F127 (Sigma) in assay buffer (2.5 mM probenecid (Sigma), 20 mM 4-(2-hydroxyethyl)-1-piperazineethanesulfonic acid (HEPES, Sigma) in Hanks' Balanced Salt Solution (HBSS, Biowest), pH 7.5) for 1 h. This solution was replaced by assay buffer, and basal Ca2+ signal (λex = 485 nm, λem = 525 nm) was measured for 20 s with a Flexstation 3 plate reader (Molecular Devices). Peptide dilutions were added, and the Ca2+ response was measured for 40 s. The maximum signal over baseline was calculated and normalized to peptide 1 (N3-cC9). Non-linear regression was performed using Prism 10 (GraphPad). Experiments were performed in technical duplicates and at least

[2] = test system: HEK293_CMKLR1-eYFP cells; experiment: Resazurin based cell viability assay, peptides; details: 72 h incubation
Procedure: page 3: […] 15% FCS. Calcium flux assay Calcium flux assay was performed with cells expressing CMKLR1 and the chimeric G protein […]. The stably transfected COS-7_CMKLR1-eYFP_ […] were seeded at 25,000 cells per well into poly-ᴅ-lysine-coated 96-well plates (black μCLEAR, Greiner). The next day, cells were incubated with […] (Sigma), 20 mM 4-(2-hydroxyethyl)-1-piperazineethanesulfonic acid (HEPES, Sigma) in Hanks' Balanced […] This solution was replaced by assay buffer, and basal Ca2+ signal (λex = 485 nm, λem = 525 nm) was measured for 20 s with a Flexstation 3 plate reader (Molecular Devices). Peptide dilutions were added, and the Ca2+ response was measured for 40 s. The maximum signal over baseline was calculated and normalized to peptide 1 (N3-cC9). Non-linear regression was performed using Prism 10 (GraphPad). Experiments were performed in technical duplicates and at least twice. Cell viability assay HEK293 and HEK293_CMKLR1-eYFP cells were seeded at 15,000 cells per well into poly-ᴅ-lysine coated 96-well plates (black μCLEAR, Greiner). […] Cells were then washed and a resazurin-based cell viability assay was performed. […] (1:1) + 15% FBS without phenol red was added to the cells. […] using the fluorescence of resorufin (λex = 550 nm, λem = 595 nm). Data was normalized to cells incubated without peptide (100%) and cells treated with ethanol for 3 min before resazurin addition (0%). Experiments were performed in technical triplicates and at least twice. Fluorescence microscopy Peptide internalization was evaluated by fluorescence microscopy. […] the cells and incubated for 6 h. […] All shown microscopy images are representative of at least two independent experiments. […] Resazurin based cell viability assay of HEK293 and HEK293_CMKLR1-eYFP cells after 72 h incubation with the p53/MDM2 inhibitor Nutlin-3a. […] 100 50 2Cy 3Cy 4Cy 0 -8 -7 -6 -5 -4 […]], log Figure S4. Resazurin based cell viability assay of HEK293_CMKLR1-eYFP cells after 72 h incubation with the PMIγ peptides discussed in this work. Mean ± SEM from two independent experiments performed in triplicates. 15 […]

[3] = printed as (reference) in the column measured D; calibration standard of the focal volume; source not shown; cited from earlier work
Description: Descriptive statistics of fluorescence correlation spectroscopy (FCS) data from Figure 3. Measurements were obtained in stably transfected HEK293_CMKLR1-eYFP cells as well as endogenously CMKLR1-expressing HMEC-1 and THP-1 cells. SD – standard deviation, GSD – geometric SD factor, IQR – interquartile range applied mean ± SD geometric median (IQR) cell line N° name concentration [nM] mean *÷ GSD [nM] [nM] [nM] HEK29 ...

[4] = target: T2, p53/MDM2 interaction (Homo sapiens, UniProt Q00987); experiment: Inhibition of intracellular p53-HaloTag/NanoLuc-MDM2 BRET; assay type: cell-based; details: unlabeled peptides, 72 h
T2 construct: host or cells: HEK293 and HEK293_CMKLR1-eYFP
T2 sequence (Q00987 whole entry): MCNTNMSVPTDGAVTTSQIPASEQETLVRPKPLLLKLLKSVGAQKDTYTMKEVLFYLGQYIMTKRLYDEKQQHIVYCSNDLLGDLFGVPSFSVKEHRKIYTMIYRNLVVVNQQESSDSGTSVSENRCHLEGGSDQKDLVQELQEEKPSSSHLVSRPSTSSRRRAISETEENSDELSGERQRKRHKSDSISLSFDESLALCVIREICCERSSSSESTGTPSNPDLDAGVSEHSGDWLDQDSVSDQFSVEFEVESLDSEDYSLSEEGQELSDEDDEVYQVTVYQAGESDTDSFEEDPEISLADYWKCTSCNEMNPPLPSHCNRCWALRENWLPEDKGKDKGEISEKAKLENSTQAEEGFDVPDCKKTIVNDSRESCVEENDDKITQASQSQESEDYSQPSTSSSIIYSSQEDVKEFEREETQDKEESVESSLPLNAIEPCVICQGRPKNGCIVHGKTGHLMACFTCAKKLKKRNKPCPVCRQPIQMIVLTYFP
Procedure: Peptides were incubated on HEK293 and HEK293_CMKLR1-eYFP cells for 72 h, before BRET was measured. Nutlin-3a was incubated on HEK293 cells for 24 h before BRET was measured. Mean ± SEM from two independent experiments performed in duplicate. […]
dividing the Cy5-signal (670±30 nm) by the NanoLuc signal (450±20 nm). netBRET was calculated by subtracting the BRET ratio from cells which were incubated without peptide. To calculate the CMKLR1-specific effect, ΔBRET was calculated by subtracting the netBRET value obtained in cells without CMKLR1 from netBRET obtained in cells with CMKLR1. After the initial readout, a kinetic BRET displacement was performed with the same cells. For this, luminescence was measured every 22 s. After 3 min, 10 µM of the small molecule MDM2 antagonist Nutlin-3a (Sigma) was added to the cells and BRET was measured for another 7 min. Experiments were performed in technical duplicates and three independent times. […]
were then incubated with dilutions of unlabeled PMIγ -peptides for 72 h or with Nutlin-3a for 24 h. […] After 10 min incubation, luminescence was measured, and BRET ratio was calculated by dividing the TMR-signal (600±50 nm) by the NanoLuc signal (450±20 nm). netBRET was calculated and normalized to cells without peptide (100%) and cells which were not label ed with HaloTag TMR Ligand (0%). […]

[5] = target: T3, recombinant human GST-MDM2 (Homo sapiens, UniProt Q00987); experiment: Fluorescence polarization binding of Cy5-labeled peptides to MDM2; details: 20 nM Cy5-labeled peptide, FP buffer pH 7.4, 30 min room temperature; performed twice in technical triplicates
T3 construct: purchased R&D Systems
T3 sequence (Q00987 whole entry): as above
Procedure: (B) Fluorescence polarization measurement of 20 nM Cy5-labeled peptides binding to recombinant human GST-MDM2.
20 nM of Cy5-labeled peptides were added to dilutions of human MDM2 (Recombinant Human GST -
MDM2/HDM2, R&D Systems) in FP buffer (50 mM tris(hydroxymethyl)aminomethane (Tris, Carl Roth),
150 mM sodium chloride (Sigma), 1 mM EDTA (Sigma), 0.01% (v/v) Tween20 (Sigma), pH 7.4) and
incubated for 30 min at room temperature. Fluorescence polarization was then measured in a Tecan
Spark plate reader (λex = 640 nm, λem = 670 nm). Measurements were performed twice in technical
triplicates. Data was then fit with Prism 10 (GraphPad) using non-linear regression with the following
solution to the quadratic binding equation 1 to obtain Kd:
𝐹𝑃 = 𝐹𝑃 + (𝐹𝑃 − 𝐹𝑃 ) ∗ 𝑐 + 𝑐 + 𝐾 − 𝑝𝑒𝑝𝑡𝑖𝑑𝑒 𝑀𝐷𝑀2 𝑑 𝑝𝑒𝑝𝑡𝑖𝑑𝑒 𝑀𝐷𝑀2

[6] = read-out: pEC50 ± SEM (converted)

## I: GSVSHHHHHHGGHHHH[PEG3][dD][dW][dW][dP][dL][dA][dF][dE][dA][dL][dL][dR]GEV[Cit][PEG3][Pra]-NH2 / II: Ac-[Lys(N3)]YFP[d(hCys)]QFAFC (triazole I:35-II:1; disulfide II:5-II:10) [compound 3]
[1]; read-out: EC50
  EC50: 0.0706 µM
[1]; [6]
  EC50: 0.0708 µM
[2]
  cytotoxicity: tolerated slightly worse at concentrations above 1 μM

## sulfo-cyanine5 [sulfo-Cy5]
[3]
  D in solution, reference: 341.6 µm2/s

## CC(=O)N[C@@H](CCCCN=[N+]=[N-])C(=O)N[C@@H](Cc1ccc(O)cc1)C(=O)N[C@@H](Cc1ccccc1)C(=O)N1CCC[C@H]1C(=O)N[C@@H]1CCSSC[C@@H](C(=O)O)NC(=O)[C@H](Cc2ccccc2)NC(=O)[C@H](C)NC(=O)[C@H](Cc2ccccc2)NC(=O)[C@H](CCC(N)=O)NC1=O [compound 1] (Ac-[Lys(N3)]YFP[d(hCys)]QFAFC-OH; disulfide 5-10)
[1]; [6]
  EC50: 0.00347 µM

## CC(=O)N[C@@H](CCCCn1cc(C[C@H](NC(=O)CCOCCOCCOCCNC(=O)[C@H](CCCNC(N)=O)NC(=O)[C@@H](NC(=O)[C@H](CCC(=O)O)NC(=O)CNC(=O)CNC(=O)[C@@H](CCCNC(=N)N)NC(=O)[C@@H](CC(C)C)NC(=O)[C@@H](CC(C)C)NC(=O)[C@@H](C)NC(=O)[C@@H](CCC(=O)O)NC(=O)[C@@H](Cc2ccccc2)NC(=O)[C@@H](C)NC(=O)[C@@H](CC(C)C)NC(=O)[C@H]2CCCN2C(=O)[C@@H](Cc2c[nH]c3ccccc23)NC(=O)[C@@H](Cc2c[nH]c3ccccc23)NC(=O)[C@H](N)CC(=O)O)C(C)C)C(N)=O)nn1)C(=O)N[C@@H](Cc1ccc(O)cc1)C(=O)N[C@@H](Cc1ccccc1)C(=O)N1CCC[C@H]1C(=O)N[C@@H]1CCSSC[C@@H](C(=O)O)NC(=O)[C@H](Cc2ccccc2)NC(=O)[C@H](C)NC(=O)[C@H](Cc2ccccc2)NC(=O)[C@H](CCC(N)=O)NC1=O [compound 2] (I: H-[dD][dW][dW][dP][dL][dA][dF][dE][dA][dL][dL][dR]GGEV[Cit][PEG3][Pra]-NH2 / II: Ac-[Lys(N3)]YFP[d(hCys)]QFAFC-OH; triazole I:19-II:1; disulfide II:5-II:10; N-terminus assumed)
[2]
  cytotoxicity: no signs of cytotoxicity
[4]
  extent of competition of the p53/MDM2 interaction: neither achieved full competition
[4]; HEK293 versus HEK293_CMKLR1-eYFP
  displacement of NanoLuc-MDM2/p53-HaloTag BRET: CMKLR1-selective effects at extracellular concentrations above 1 μM

## C#CC[C@H](NC(=O)CCOCCOCCOCCNC(=O)[C@H](CCCNC(N)=O)NC(=O)[C@@H](NC(=O)[C@H](CCC(=O)O)NC(=O)CNC(=O)[C@@H](CCCNC(=N)N)NC(=O)[C@@H](CC(C)C)NC(=O)[C@@H](CC(C)C)NC(=O)[C@@H](C)NC(=O)[C@@H](CCC(=O)O)NC(=O)[C@@H](Cc1ccccc1)NC(=O)[C@@H](C)NC(=O)[C@@H](CC(C)C)NC(=O)[C@H]1CCCN1C(=O)[C@@H](Cc1c[nH]c2ccccc12)NC(=O)[C@@H](Cc1c[nH]c2ccccc12)NC(=O)[C@@H](CC(=O)O)NC(=O)CCOCCOCCOCCNC(=O)[C@@H](CCCNC(=N)N)NC(=O)[C@@H](CCCNC(=N)N)NC(=O)[C@@H](CCCNC(=N)N)NC(=O)[C@@H](CCCNC(=N)N)NC(=O)[C@@H](CCCNC(=N)N)NC(=O)[C@@H](CCCNC(=N)N)NC(=O)[C@@H](CCCNC(=N)N)NC(=O)[C@@H](CCCNC(=N)N)NC(=O)[C@@H](CCCNC(=N)N)NC(=O)CCOCCOCCOCCNC(=O)CCCCC[N+]1=C(C=CC=CC=C2N(C)c3ccc(S(=O)(=O)O)cc3C2(C)C)C(C)(C)c2cc(S(=O)(=O)[O-])ccc21)C(C)C)C(N)=O [4Cy]
[5]
  Kd: 0.0571 ± 0.0218 µM
